Values of other authors, collected in patent publication US20100119576A1, “USE OF ONE OR MORE OF THE ELEMENTS FROM THE GROUP YTTRIUM, NEODYMIUM AND ZIRCONIUM, AND PHARMACEUTICAL COMPOSITIONS WHICH CONTAIN THOSE ELEMENTS” (BIOTRONIK VI PATENT AG, priority 2002, published 2010).

Test system: Klebsiella pneumoniae strain 204 and K9
Settings: 142 mM Y(OH)3

In the case of `[OH-].[OH-].[OH-].[Y+3]` [Y(OH)3], the “proliferation of K. pneumoniae” value is listed as “increased proliferation”.
